In PMC8069330, “Chirality of Novel Bitopic Agonists Determines Unique Pharmacology at the Dopamine D3 Receptor” (Biomolecules, 2021):

Tests used:
Format in all cases: cell-based
[1] = target: T1, D2R (Homo sapiens, UniProt P14416); test: BRET-based β-arrestin recruitment assay at D2R (10 min); settings: D2R, 10 min; for EC50: read-out: β-arrestin Recruitment pEC50 ± SEM (converted)
T1 construct: expressed in transfected cells; host or cells: HEK293T
Target sequence in this assay (P14416 whole entry): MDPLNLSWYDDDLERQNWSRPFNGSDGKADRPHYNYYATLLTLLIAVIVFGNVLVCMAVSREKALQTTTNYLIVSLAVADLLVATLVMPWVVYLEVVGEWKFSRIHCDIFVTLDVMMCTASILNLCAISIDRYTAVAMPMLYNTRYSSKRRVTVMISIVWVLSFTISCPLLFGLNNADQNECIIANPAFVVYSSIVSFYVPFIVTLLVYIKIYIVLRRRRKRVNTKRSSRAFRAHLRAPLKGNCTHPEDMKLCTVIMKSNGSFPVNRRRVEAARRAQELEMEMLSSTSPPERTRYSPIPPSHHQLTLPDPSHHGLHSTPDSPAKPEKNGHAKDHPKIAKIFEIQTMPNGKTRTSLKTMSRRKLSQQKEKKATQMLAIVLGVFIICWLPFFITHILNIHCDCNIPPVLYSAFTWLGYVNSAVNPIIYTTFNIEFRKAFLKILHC
Target sequence in this assay (P32121 whole entry partner): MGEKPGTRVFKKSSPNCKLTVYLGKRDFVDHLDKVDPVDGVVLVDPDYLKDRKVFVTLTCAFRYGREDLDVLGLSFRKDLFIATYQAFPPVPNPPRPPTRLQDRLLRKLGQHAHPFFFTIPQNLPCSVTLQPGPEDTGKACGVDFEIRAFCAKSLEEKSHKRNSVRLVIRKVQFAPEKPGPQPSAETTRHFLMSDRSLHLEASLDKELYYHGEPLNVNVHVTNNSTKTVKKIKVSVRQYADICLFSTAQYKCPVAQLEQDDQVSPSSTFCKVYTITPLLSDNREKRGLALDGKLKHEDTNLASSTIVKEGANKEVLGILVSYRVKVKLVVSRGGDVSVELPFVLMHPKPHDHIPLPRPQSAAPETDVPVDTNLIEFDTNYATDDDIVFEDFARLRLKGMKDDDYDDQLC

[2] = target: T2, D3R (Homo sapiens, UniProt P35462); test: BRET-based β-arrestin recruitment assay at D3R (10 min); settings: D3R; for EC50: read-out: β-arrestin Recruitment pEC50 ± SEM (converted)
T2 construct: expressed in transfected cells; host or cells: HEK293T
Target sequence in this assay (P35462 whole entry): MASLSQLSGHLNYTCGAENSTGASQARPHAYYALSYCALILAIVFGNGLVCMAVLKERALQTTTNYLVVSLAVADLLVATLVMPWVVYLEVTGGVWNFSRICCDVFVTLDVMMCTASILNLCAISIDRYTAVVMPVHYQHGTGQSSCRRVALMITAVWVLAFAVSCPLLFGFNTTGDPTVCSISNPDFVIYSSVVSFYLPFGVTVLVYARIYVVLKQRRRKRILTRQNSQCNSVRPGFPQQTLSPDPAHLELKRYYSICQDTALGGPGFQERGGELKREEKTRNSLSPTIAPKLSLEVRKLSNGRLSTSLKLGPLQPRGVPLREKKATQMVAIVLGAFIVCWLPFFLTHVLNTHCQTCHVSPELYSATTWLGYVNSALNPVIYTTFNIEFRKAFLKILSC
Target sequence in this assay (P32121 whole entry partner): as the sequence (P32121 whole entry partner) above

[3] = target: T2, D3R; test: BRET-based Go protein activation assay at D3R (10 min); settings: for Selectivity (D2R/D3R) Go Protein Activation: D3R over D2R selectivity; for EC50: read-out: Go Protein Activation Assay pEC50 ± SEM (converted); for Bias Factors D3R: Go protein vs β-arrestin, log10(Emax/EC50)G protein − log10(Emax/EC50)β arrestin
Target sequence in this assay (P35462 whole entry): as the sequence (P35462 whole entry) above

[4] = target: T1, D2R; test: BRET-based Go protein activation assay at D2R (10 min); settings: 10 min; for EC50: read-out: Go Protein Activation Assay pEC50 ± SEM (converted); for Bias Factors D2R: Go protein vs β-arrestin, log10(Emax/EC50)G protein − log10(Emax/EC50)β arrestin
Target sequence in this assay (P14416 whole entry): as the sequence (P14416 whole entry) above

β-arrestin Recruitment Change Emax over Quinpirole [1] | β-arrestin Recruitment Emax ± SEM (% of Quinpirole) [1] | β-arrestin Recruitment Fold Potency over Quinpirole [1] | EC50 [1] | β-arrestin Recruitment Change Emax over Quinpirole [2] | β-arrestin Recruitment Fold Potency over Quinpirole [2] | EC50 [2] | Go Protein Activation Assay Change Emax over Quinpirole ([3]; D3R) | Go Protein Activation Assay Emax ± SEM (% of Quinpirole) ([3]; D3R) | Go Protein Activation Assay Fold Potency over Quinpirole ([3]; D3R) | Selectivity (D2R/D3R) Go Protein Activation [3] | EC50 ([3]; D3R) | Bias Factors D3R [3] | Go Protein Activation Assay Change Emax over Quinpirole ([4]; D2R) | Go Protein Activation Assay Emax ± SEM (% of Quinpirole) ([4]; D2R) | Go Protein Activation Assay Fold Potency over Quinpirole ([4]; D2R) | EC50 ([4]; D2R) | Bias Factors D2R [4] | Compound | further results
21.6 | 121.6 ± 8.2 % of Quinpirole | 0.16 fold | 724 nM | 4.0 | 0.025 fold | 174 nM | 0.4 | 100.4 ± 2.7 ^δδδδ % of Quinpirole | 0.158 fold | 2.8 fold | 18.6 nM | 1.0 | 2.70 | 102.7 ± 4.0 % of Quinpirole | 0.66 fold | 52.5 nM | 1.1 | C[C@H]1CO[C@@H](c2ccc(N)nc2)CN1CCCCOc1ccc2c(c1)NC(=O)CC2 [AB04-96] | Higher efficacy compared to quinpirole in D2R mediated β-arrestin recruitment [1]: ~ 22%
– | – | – | – | – | – | – | – | – | – | – | – | – | – | – | – | – | – | C[C@H]1CO[C@H](c2ccc(N)nc2)CN1CCCCOc1ccc2c(c1)NC(=O)CC2 [AB04-95] | Activity in D2R β-arrestin recruitment (result in words) [1]: did not show any activity; D3R mediated β-arrestin recruitment (result in words) [2]: near complete abolishment; D3R mediated Go protein activation (result in words) ([3]; D3R): near complete abolishment; Activity in D2R Go protein activation (result in words) ([4]; D2R): did not show any activity
2.80 | 102.8 ± 2.5 % of Quinpirole | 0.06 fold | 1820 nM | −5.2 | 0.009 fold | 490 nM | −6.1 | 93.9 ± 3.0 ^δδδδ % of Quinpirole | 0.051 fold | 5.8 fold | 57.5 nM | 0.9 | −24.10 | 75.9 ± 5.3 % of Quinpirole | 0.10 fold | 331 nM | 0.6 | C[C@H]1COC(c2ccc(N)nc2)CN1CCCCOc1ccc2c(c1)NC(=O)CC2 (mixture of isomers) [rac-AB04-35] | β-arrestin Recruitment Emax ± SEM (% of Quinpirole) [2]: 94.8 ± 3.7 ^δδ % of Quinpirole
